Test results reported in patent US20240041827A1, “COMPOSITIONS FOR THE TREATMENT OF FAT RELATED CONDITIONS AND DISORDERS” (priority 2020, published 2024).

Tested on: human visceral preadipocytes
Test: in vitro
Protocol: Human visceral preadipocytes were seeded in 96-well white clear bottom plates at 10,000 cells per well in 100 μl pre-adipocyte medium and incubated overnight at 37° C. 5% CO2. On the following day, adipogenic differentiation was induced by addition of 100 μl/well differentiation medium and incubation continued for 5 days. Adipogenic differentiation was verified by microscopic evaluation, addition of adipored reagents and fluorescent measurement at Ex485 nm/Em572 nm. […] Staurosporine (1 μM) and 0.2% DMSO were used as controls. Plates were incubated at 37° C. 5% CO2 for 2, 6 and 24 hours. Following incubation, cytotoxicity was measured using Cell Titer Glo 2.0 (Promega).
Test Item RZL-12 (1-300 μM) was prepared on the day of the testing as 150 mM stock solutions in DMSO. The 150 mM represents a 500×stock of the highest desired tested concentration. The 150 mM stock solution was first serially diluted in DMSO to acquire 500×stock solutions for each of the RZL-012 concentrations. The 500×stock solutions were then diluted 1:25 in medium to acquire 20×intermediate stock solutions. Finally, the 20×intermediate stock solutions were further diluted 1:20 in the assay (on the plate) that included seeded cells.
The 600 μM represents a 20× stock of the highest desired tested concentration. […] Finally, the 20×intermediate stock solutions were further diluted 1:20 in the assay plate that included seeded cells.
Human visceral pre-adipocytes (HPrAD-vis): HPrAD-vis cells (Lonza cat #PT-5005) were thawed at 37° C. and transferred into 50 ml tubes containing pre-adipocytes PGM-2 growth medium (PBM-2, 10% FBS, 1-glutamine, GA-1000). Cells were centrifuged at 300 g for 10 minutes, the supernatant was removed (Leaving about 1 ml of wash medium for not disrupting the cells) and 2 ml fresh PGM-2 medium was added. After resuspension, cells were counted and seeded in T-75 and T25 flasks at a density of 9,000 cells/cm^2 ([…], 225,000 cells/T25 flask). Medium was changed every 2-3 days until reached confluence of 70%.
Cells were sub-cultured only once, as soon as they reached 70% confluence. For this purpose, the culture medium of each flask was removed and cells were washed once with 5 ml PBS. The flask was shaken to ensure that the entire surface was covered and the PBS was removed. Then, 3 ml/T75 flask or 1 ml/T25 flask of fresh dedicated Trypsin/EDTA solution (from Lonza) was added and the flasks were incubated for 3-4 minutes at RT until ˜90% cells were detached. The Trypsin/EDTA solution was then neutralized by addition of 6 ml/T75 flask or 3 ml/T25 flask of full PGM-2 growth medium. Cells were collected in 50 ml tubes and centrifuged 10 minutes at 300 g. The supernatant was removed and the cells were resuspended in 3 ml fresh medium. Cells were then counted using a haemacytometer slide after being diluted 1:2 in trypan blue (SIGMA). For sub-culturing, cells were seeded in new T75 flasks at a density of 9,000 cells/cm^2 containing 15 ml fresh growth medium. Alternatively, the cells were seeded in 96-well culture plates at a density of 10,000 cells/well for the cell treatments.
HPrAD-vis cells: HPrAD-vis passaged once were seeded in 96-well plates as described above (10000cells/well in 100 μl medium) and allowed to settle overnight at 37° C., 5% CO2. Following day, adipogenic differentiation was induced by addition of 100 μl/well differentiation medium and incubated for 5 days. Adipogenic differentiation was verified by microscopic evaluation, addition of adipored reagents and fluorescent measurement at Ex485 nm/Em572 nm. In the morning of day 6, test and reference items were prepared as described above. Cells' medium was replaced with 90 μl fresh differentiation medium. […] Staurosporine (1 μM) and 0.2% DMSO were used as controls. Plates were incubated at 37° C. 5% CO2 for 2, 6 and 24 hours. Following incubation, cell viability was determined using the CellTiter-Gg® viability reagent (Promega) with reading of plates for luminescence. […]

## C[N+](C)(C)CCCCCn1c2ccc(Br)cc2c2cc(Br)ccc21.[Cl-] [RZL-012, 5-(3,6-dibromo-9H-carbazol-9-yl)-N,N,N-trimethylpentan-1-aminium chloride]
RZL12 10 μM, Collagenase 0, 2 h of incubation
  Average RZL-012 and collagenase induced cell death (% vs untreated cells): 10.4%
RZL12 10 μM, Collagenase 0, 24 h of incubation
  Average RZL-012 and collagenase induced cell death (% vs untreated cells): 12.80%
RZL12 10 μM, Collagenase 0.1 μM, 2 h of incubation
  Average RZL-012 and collagenase induced cell death (% vs untreated cells): 4.9%
RZL12 10 μM, Collagenase 0.1 μM, 24 h of incubation
  Average RZL-012 and collagenase induced cell death (% vs untreated cells): 9.43%
RZL12 10 μM, Collagenase 0.3 μM, 2 h of incubation
  Average RZL-012 and collagenase induced cell death (% vs untreated cells): 5.0%
RZL12 10 μM, Collagenase 0.3 μM, 24 h of incubation
  Average RZL-012 and collagenase induced cell death (% vs untreated cells): 5.50%
RZL12 10 μM, Collagenase 1 μM, 2 h of incubation
  Average RZL-012 and collagenase induced cell death (% vs untreated cells): 7.8%
RZL12 10 μM, Collagenase 1 μM, 24 h of incubation
  Average RZL-012 and collagenase induced cell death (% vs untreated cells): 16.08%
RZL12 10 μM, Collagenase 3 μM, 2 h of incubation
  Average RZL-012 and collagenase induced cell death (% vs untreated cells): 17.7%
RZL12 10 μM, Collagenase 3 μM, 24 h of incubation
  Average RZL-012 and collagenase induced cell death (% vs untreated cells): 33.99%
RZL12 10 μM, Collagenase 10 μM, 2 h of incubation
  Average RZL-012 and collagenase induced cell death (% vs untreated cells): 22.3%
RZL12 10 μM, Collagenase 10 μM, 24 h of incubation
  Average RZL-012 and collagenase induced cell death (% vs untreated cells): 65.12%
RZL12 10 μM, Collagenase 30 μM, 2 h of incubation
  Average RZL-012 and collagenase induced cell death (% vs untreated cells): 45.0%
RZL12 10 μM, Collagenase 30 μM, 24 h of incubation
  Average RZL-012 and collagenase induced cell death (% vs untreated cells): 80.04%
RZL12 30 μM, Collagenase 0, 2 h of incubation
  Average RZL-012 and collagenase induced cell death (% vs untreated cells): 50.4%
RZL12 30 μM, Collagenase 0, 24 h of incubation
  Average RZL-012 and collagenase induced cell death (% vs untreated cells): 72.72%
RZL12 30 μM, Collagenase 0.1 μM, 2 h of incubation
  Average RZL-012 and collagenase induced cell death (% vs untreated cells): 43.8%
RZL12 30 μM, Collagenase 0.1 μM, 24 h of incubation
  Average RZL-012 and collagenase induced cell death (% vs untreated cells): 28.35%
RZL12 30 μM, Collagenase 0.3 μM, 2 h of incubation
  Average RZL-012 and collagenase induced cell death (% vs untreated cells): 35.0%
RZL12 30 μM, Collagenase 0.3 μM, 24 h of incubation
  Average RZL-012 and collagenase induced cell death (% vs untreated cells): 23.76%
RZL12 30 μM, Collagenase 1 μM, 2 h of incubation
  Average RZL-012 and collagenase induced cell death (% vs untreated cells): 45.8%
RZL12 30 μM, Collagenase 1 μM, 24 h of incubation
  Average RZL-012 and collagenase induced cell death (% vs untreated cells): 31.37%
RZL12 30 μM, Collagenase 3 μM, 2 h of incubation
  Average RZL-012 and collagenase induced cell death (% vs untreated cells): 49.7%
RZL12 30 μM, Collagenase 3 μM, 24 h of incubation
  Average RZL-012 and collagenase induced cell death (% vs untreated cells): 79.97%
RZL12 30 μM, Collagenase 10 μM, 2 h of incubation
  Average RZL-012 and collagenase induced cell death (% vs untreated cells): 33.2%
RZL12 30 μM, Collagenase 10 μM, 24 h of incubation
  Average RZL-012 and collagenase induced cell death (% vs untreated cells): 83.68%
RZL12 30 μM, Collagenase 30 μM, 2 h of incubation
  Average RZL-012 and collagenase induced cell death (% vs untreated cells): 46.0%
RZL12 30 μM, Collagenase 30 μM, 24 h of incubation
  Average RZL-012 and collagenase induced cell death (% vs untreated cells): 90.00%
RZL12 100 μM, Collagenase 0, 2 h of incubation
  Average RZL-012 and collagenase induced cell death (% vs untreated cells): 99.7%
RZL12 100 μM, Collagenase 0, 24 h of incubation
  Average RZL-012 and collagenase induced cell death (% vs untreated cells): 99.89%
RZL12 100 μM, Collagenase 0.1 μM, 2 h of incubation
  Average RZL-012 and collagenase induced cell death (% vs untreated cells): 99.5%
RZL12 100 μM, Collagenase 0.1 μM, 24 h of incubation
  Average RZL-012 and collagenase induced cell death (% vs untreated cells): 99.66%
RZL12 100 μM, Collagenase 0.3 μM, 2 h of incubation
  Average RZL-012 and collagenase induced cell death (% vs untreated cells): 99.3%
RZL12 100 μM, Collagenase 0.3 μM, 24 h of incubation
  Average RZL-012 and collagenase induced cell death (% vs untreated cells): 99.60%
RZL12 100 μM, Collagenase 1 μM, 2 h of incubation
  Average RZL-012 and collagenase induced cell death (% vs untreated cells): 98.9%
RZL12 100 μM, Collagenase 1 μM, 24 h of incubation
  Average RZL-012 and collagenase induced cell death (% vs untreated cells): 99.65%
RZL12 100 μM, Collagenase 3 μM, 2 h of incubation
  Average RZL-012 and collagenase induced cell death (% vs untreated cells): 97.4%
RZL12 100 μM, Collagenase 3 μM, 24 h of incubation
  Average RZL-012 and collagenase induced cell death (% vs untreated cells): 99.89%
RZL12 100 μM, Collagenase 10 μM, 2 h of incubation
  Average RZL-012 and collagenase induced cell death (% vs untreated cells): 72.4%
RZL12 100 μM, Collagenase 10 μM, 24 h of incubation
  Average RZL-012 and collagenase induced cell death (% vs untreated cells): 99.92%
RZL12 100 μM, Collagenase 30 μM, 2 h of incubation
  Average RZL-012 and collagenase induced cell death (% vs untreated cells): 76.4%
RZL12 100 μM, Collagenase 30 μM, 24 h of incubation
  Average RZL-012 and collagenase induced cell death (% vs untreated cells): 99.99%
RZL12 300 μM, Collagenase 0, 2 h of incubation
  Average RZL-012 and collagenase induced cell death (% vs untreated cells): 99.9%
RZL12 300 μM, Collagenase 0, 24 h of incubation
  Average RZL-012 and collagenase induced cell death (% vs untreated cells): 100.00%
RZL12 300 μM, Collagenase 0.1 μM, 2 h of incubation
  Average RZL-012 and collagenase induced cell death (% vs untreated cells): 99.6%
RZL12 300 μM, Collagenase 0.1 μM, 24 h of incubation
  Average RZL-012 and collagenase induced cell death (% vs untreated cells): 99.67%
RZL12 300 μM, Collagenase 0.3 μM, 2 h of incubation
  Average RZL-012 and collagenase induced cell death (% vs untreated cells): 99.6%
RZL12 300 μM, Collagenase 0.3 μM, 24 h of incubation
  Average RZL-012 and collagenase induced cell death (% vs untreated cells): 99.74%
RZL12 300 μM, Collagenase 1 μM, 2 h of incubation
  Average RZL-012 and collagenase induced cell death (% vs untreated cells): 99.1%
RZL12 300 μM, Collagenase 1 μM, 24 h of incubation
  Average RZL-012 and collagenase induced cell death (% vs untreated cells): 99.96%
RZL12 300 μM, Collagenase 3 μM, 2 h of incubation
  Average RZL-012 and collagenase induced cell death (% vs untreated cells): 96.6%
RZL12 300 μM, Collagenase 3 μM, 24 h of incubation
  Average RZL-012 and collagenase induced cell death (% vs untreated cells): 99.76%
RZL12 300 μM, Collagenase 10 μM, 2 h of incubation
  Average RZL-012 and collagenase induced cell death (% vs untreated cells): 89.2%
RZL12 300 μM, Collagenase 10 μM, 24 h of incubation
  Average RZL-012 and collagenase induced cell death (% vs untreated cells): 99.82%
RZL12 300 μM, Collagenase 30 μM, 2 h of incubation
  Average RZL-012 and collagenase induced cell death (% vs untreated cells): 89.5%
RZL12 300 μM, Collagenase 30 μM, 24 h of incubation
  Average RZL-012 and collagenase induced cell death (% vs untreated cells): 100.01%
At all time points (2, 6, 24 h)
  concentrations at which the cytotoxic effect was observed: > 30 µM
